Measured values from ChEMBL document CHEMBL1201862, “PubChem BioAssay data set” (2004).
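Assay format: 96-well plates, 48-hour exposure. The concentration for 50% growth inhibition is given as GI50.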 Activity calls are given as the source filed them. No stated cut-off is given here; in the data, active = GI50 up to about 1.1 µM and inactive = higher.

Legend:
Assay in all cases: DTP human tumour cell line panel, 48 h
SK-MEL-5 = test system: SK-MEL-5
Hs-578T = test system: Hs-578T
A549 = test system: A549
U-251 = test system: U-251
MDA-MB-231 = test system: MDA-MB-231
SR = test system: SR
NCI-H522 = test system: NCI-H522
RXF 393 = test system: RXF 393
BT-549 = test system: BT-549
MDA-MB-435 = test system: MDA-MB-435
SNB-75 = test system: SNB-75
PC-3 = test system: PC-3
LOX IMVI = test system: LOX IMVI
SK-OV-3 = test system: SK-OV-3
NCI-H226 = test system: NCI-H226
MOLT-4 = test system: MOLT-4
HOP-62 = test system: HOP-62
HL-60 = test system: HL-60
SF-268 = test system: SF-268
NCI-H460 = test system: NCI-H460

How did the GI50 (SK-MEL-5) turn out when Nc1nc2c(c(=O)[nH]1)N=C(COP(=O)(O)OP(=O)(O)O)CN2 was run?
Its GI50 is > 100 µM (inactive).

And the GI50 (Hs-578T)?
Its GI50 is > 100 µM (inactive).

What about the GI50 (A549) of the same molecule?
The GI50 was > 100 µM (inactive).

And the GI50 (U-251)?
Its GI50 is > 100 µM (inactive).

And the GI50 (MDA-MB-231)?
Its GI50 is > 100 µM (inactive).

And the GI50 (SR)?
Its GI50 is > 100 µM (inactive).

And the GI50 (NCI-H522)?
Its GI50 is > 100 µM (inactive).

What about the GI50 (RXF 393) of the same molecule?
The GI50 was > 100 µM (inactive).

What about the GI50 (BT-549) of the same molecule?
The GI50 was > 100 µM (inactive).

What about the GI50 (MDA-MB-435) of the same molecule?
Its GI50 is > 100 µM (inactive).

What about the GI50 (SNB-75) of the same molecule?
Its GI50 is > 100 µM (inactive).

And the GI50 (PC-3)?
The GI50 was > 100 µM (inactive).

And the GI50 (LOX IMVI)?
The GI50 was > 100 µM (inactive).

What about the GI50 (SK-OV-3) of the same molecule?
Its GI50 is > 100 µM (inactive).

What about the GI50 (NCI-H226) of the same molecule?
The GI50 was > 100 µM (inactive).

And the GI50 (MOLT-4)?
The GI50 was > 100 µM (inactive).

What about the GI50 (HOP-62) of the same molecule?
The GI50 was > 100 µM (inactive).

And the GI50 (HL-60)?
The GI50 was > 100 µM (inactive).

What about the GI50 (SF-268) of the same molecule?
The GI50 was > 100 µM (inactive).

Which GI50 (SK-MEL-5) does the source give for Cc1nc(SCC(=O)Nc2ccc(Cl)cc2)c2sc(=S)n(-c3ccccc3)c2n1 here?
Its GI50 is > 10 µM (inactive).

And the GI50 (Hs-578T)?
Its GI50 is > 10 µM (inactive).

What about the GI50 (A549) of the same molecule?
Its GI50 is > 10 µM (inactive).

What about the GI50 (NCI-H460) of the same molecule?
Its GI50 is > 10 µM (inactive).

What about the GI50 (U-251) of the same molecule?
Its GI50 is > 10 µM (inactive).

What about the GI50 (MDA-MB-231) of the same molecule?
Its GI50 is > 10 µM (inactive).

And the GI50 (SR)?
The GI50 was 6.28 µM (inactive).

What about the GI50 (NCI-H522) of the same molecule?
The GI50 was > 10 µM (inactive).

And the GI50 (RXF 393)?
Its GI50 is > 10 µM (inactive).

And the GI50 (BT-549)?
Its GI50 is > 10 µM (inactive).

And the GI50 (MDA-MB-435)?
The GI50 was > 10 µM (inactive).

And the GI50 (SNB-75)?
The GI50 was > 10 µM (inactive).

And the GI50 (PC-3)?
The GI50 was > 10 µM (inactive).

What about the GI50 (LOX IMVI) of the same molecule?
Its GI50 is > 10 µM (inactive).

What about the GI50 (SK-OV-3) of the same molecule?
Its GI50 is > 10 µM (inactive).

And the GI50 (NCI-H226)?
The GI50 was > 10 µM (inactive).

And the GI50 (MOLT-4)?
Its GI50 is > 10 µM (inactive).

What about the GI50 (HOP-62) of the same molecule?
Its GI50 is > 10 µM (inactive).

What about the GI50 (HL-60) of the same molecule?
The GI50 was > 10 µM (inactive).

What about the GI50 (SF-268) of the same molecule?
Its GI50 is > 10 µM (inactive).

How did the GI50 (SK-MEL-5) turn out when S=C1CCSc2c(ccc3ccccc23)N1 was run?
Its GI50 is > 100 µM (inactive).

And the GI50 (Hs-578T)?
The GI50 was 19.1 µM (inactive).

And the GI50 (A549)?
The GI50 was > 100 µM (inactive).

And the GI50 (NCI-H460)?
The GI50 was 71.8 µM (inactive).

What about the GI50 (U-251) of the same molecule?
The GI50 was > 100 µM (inactive).

And the GI50 (MDA-MB-231)?
Its GI50 is > 100 µM (inactive).

And the GI50 (SR)?
Its GI50 is 35.6 µM (inactive).

What about the GI50 (NCI-H522) of the same molecule?
Its GI50 is 58.5 µM (inactive).

What about the GI50 (RXF 393) of the same molecule?
Its GI50 is 0.512 µM (active).

What about the GI50 (BT-549) of the same molecule?
The GI50 was 67.1 µM (inactive).

What about the GI50 (MDA-MB-435) of the same molecule?
The GI50 was > 100 µM (inactive).

And the GI50 (SNB-75)?
The GI50 was 74.3 µM (inactive).

What about the GI50 (PC-3) of the same molecule?
Its GI50 is 41 µM (inactive).

What about the GI50 (LOX IMVI) of the same molecule?
The GI50 was > 100 µM (inactive).

What about the GI50 (SK-OV-3) of the same molecule?
Its GI50 is 83.9 µM (inactive).

What about the GI50 (NCI-H226) of the same molecule?
Its GI50 is > 100 µM (inactive).

And the GI50 (MOLT-4)?
Its GI50 is 30 µM (inactive).

What about the GI50 (HOP-62) of the same molecule?
Its GI50 is 41.4 µM (inactive).

And the GI50 (HL-60)?
Its GI50 is 33.2 µM (inactive).

And the GI50 (SF-268)?
Its GI50 is 58.6 µM (inactive).

For O=C1c2cc([N+](=O)[O-])sc2C(=O)c2c([N+](=O)[O-])csc21, which GI50 (SK-MEL-5) is on record?
Its GI50 is 0.166 µM (active).

And the GI50 (Hs-578T)?
The GI50 was 0.65 µM (active).

And the GI50 (A549)?
Its GI50 is 1.9 µM (inactive).

What about the GI50 (NCI-H460) of the same molecule?
Its GI50 is 1.55 µM (inactive).

And the GI50 (U-251)?
The GI50 was 0.379 µM (active).

What about the GI50 (MDA-MB-231) of the same molecule?
Its GI50 is 0.551 µM (active).

And the GI50 (SR)?
Its GI50 is 0.0479 µM (active).

And the GI50 (NCI-H522)?
Its GI50 is 0.6 µM (active).

What about the GI50 (RXF 393) of the same molecule?
The GI50 was 0.706 µM (active).

What about the GI50 (BT-549) of the same molecule?
The GI50 was 0.802 µM (active).

And the GI50 (MDA-MB-435)?
Its GI50 is 0.168 µM (active).

And the GI50 (SNB-75)?
Its GI50 is 1.77 µM (inactive).

What about the GI50 (PC-3) of the same molecule?
The GI50 was 1.33 µM (inactive).

What about the GI50 (LOX IMVI) of the same molecule?
The GI50 was 0.112 µM (active).

What about the GI50 (SK-OV-3) of the same molecule?
Its GI50 is 1.68 µM (inactive).

What about the GI50 (NCI-H226) of the same molecule?
Its GI50 is 1.52 µM (inactive).

What about the GI50 (MOLT-4) of the same molecule?
Its GI50 is 0.229 µM (active).

And the GI50 (HL-60)?
The GI50 was 0.0382 µM (active).

What about the GI50 (SF-268) of the same molecule?
The GI50 was 0.708 µM (active).

Which results are given for FC(F)(F)c1cc(N(C2c3ccccc3C=Cc3ccccc32)P(Cl)Cl)cc(C(F)(F)F)c1?
GI50 (SK-MEL-5): 18.1 µM (inactive); GI50 (Hs-578T): 25.5 µM (inactive); GI50 (A549): 18.3 µM (inactive); GI50 (U-251): 17.8 µM (inactive); GI50 (MDA-MB-231): 18.6 µM (inactive); GI50 (SR): 16 µM (inactive); GI50 (NCI-H522): 14.1 µM (inactive); GI50 (RXF 393): 13.8 µM (inactive); GI50 (BT-549): 0.706 µM (active); GI50 (MDA-MB-435): 21.8 µM (inactive); GI50 (SNB-75): 19.3 µM (inactive); GI50 (PC-3): 22.7 µM (inactive); GI50 (LOX IMVI): 18.5 µM (inactive); GI50 (SK-OV-3): 25.4 µM (inactive); GI50 (NCI-H226): 19.1 µM (inactive); GI50 (MOLT-4): 13.1 µM (inactive); GI50 (HOP-62): 17.6 µM (inactive); GI50 (HL-60): 20 µM (inactive); GI50 (SF-268): 17.2 µM (inactive)

Which GI50 (SK-MEL-5) does the source give for CC(C)C1=CC23CCC4C(C)(C(=O)O)CCCC4(C)C2CC1C(C(=O)O)C3C(=O)O (stereo not given) here?
Its GI50 is > 100 µM (inactive).

And the GI50 (Hs-578T)?
Its GI50 is > 100 µM (inactive).

What about the GI50 (A549) of the same molecule?
The GI50 was > 100 µM (inactive).

What about the GI50 (NCI-H460) of the same molecule?
The GI50 was > 100 µM (inactive).

What about the GI50 (U-251) of the same molecule?
The GI50 was > 100 µM (inactive).

And the GI50 (MDA-MB-231)?
Its GI50 is > 100 µM (inactive).

What about the GI50 (SR) of the same molecule?
Its GI50 is > 100 µM (inactive).

What about the GI50 (NCI-H522) of the same molecule?
The GI50 was > 100 µM (inactive).

And the GI50 (RXF 393)?
The GI50 was > 100 µM (inactive).

And the GI50 (BT-549)?
Its GI50 is > 100 µM (inactive).

What about the GI50 (MDA-MB-435) of the same molecule?
The GI50 was > 100 µM (inactive).

What about the GI50 (SNB-75) of the same molecule?
Its GI50 is > 100 µM (inactive).

What about the GI50 (PC-3) of the same molecule?
The GI50 was > 100 µM (inactive).

What about the GI50 (LOX IMVI) of the same molecule?
The GI50 was > 100 µM (inactive).

And the GI50 (NCI-H226)?
Its GI50 is > 100 µM (inactive).

What about the GI50 (MOLT-4) of the same molecule?
Its GI50 is > 100 µM (inactive).

And the GI50 (HOP-62)?
Its GI50 is > 100 µM (inactive).

And the GI50 (SF-268)?
The GI50 was > 100 µM (inactive).
